Experimental data published in US8389523B2, “Substituted quinoxaline and an agrochemical composition thereof” (Kumiai Chemical Industry Co., Ltd., priority 2007, dated 2013).

How the values were obtained:
Assay type in all cases: in vivo
Parameters in all cases: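 grade 0 to 5 of growth suppression where 5 is 90% or more and 0 below 10%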
[1] = test system: Echinochloa crus-galli (L.) P. Beauv. var. crus-galli; experiment: Herbicidal effects in upland field foliar treatment (Test Example 3); settings: 1000 g of the active ingredient per hectare, 14th day after the treatment, wettable powder, criteria of Table 138
Method in brief: (§1)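 Post-emergence foliar treatment: two-week-old seedlings from upland field soil received 1000 g a.i./ha (wettable powder, 1000 L water/ha), then returned to the greenhouse for scoring 14 days later.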

[2] = test system: Abutilon theophrasti medicus; experiment: as above; settings: 1000 g of the active ingredient per hectare, 14th day after the treatment, wettable powder, criteria of Table 138
Method in brief: as §1

[3] = test system: Amaranthus viridis L.; experiment: as above; settings: 1000 g of the active ingredient per hectare, 14th day after the treatment, wettable powder, criteria of Table 138
Method in brief: as §1

[4] = test system: Monochoria vaginalis (Burm. f.) Presl var. plantaginea (Roxb.) Solms-Laub.; experiment: Herbicidal effects in paddy field soil treatment (Test Example 1); settings: paddy field soil treatment; 1000 g of the active ingredient per hectare; wettable powder added dropwise on water surface; 21st day after treatment
Method in brief: (§2)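 Flooded-paddy soil treatment under greenhouse conditions: a diluted wettable powder at 1000 g a.i./ha went onto the water surface one day post-sowing, with 3 cm standing water, and weed control was graded on a scoring scale 21 days after treatment.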

[5] = test system: Scirpus juncoides Roxb. var. ohwianus. T. Koyama; experiment: as above; settings: paddy field soil treatment; 1000 g of the active ingredient per hectare; wettable powder added dropwise on water surface; 21st day after treatment
Method in brief: as §2

[6] = test system: Echinochloa oryzicola Vasing; experiment: as above; settings: paddy field soil treatment; 1000 g of the active ingredient per hectare; wettable powder added dropwise on water surface; 21st day after treatment
Method in brief: as §2

[7] = test system: Abutilon theophrasti medicus; experiment: Herbicidal effects in upland field soil treatment (Test Example 2); settings: 1000 g active ingredient per hectare, 21st day after treatment, criteria of Table 138
Method in brief: (§3)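 Soil-applied before emergence at 1000 g a.i./ha as water-diluted wettable powder; greenhouse-grown plants rated for herbicidal damage 21 days post-treatment.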

[8] = test system: Amaranthus viridis L.; experiment: as above; settings: 1000 g active ingredient per hectare, 21st day after treatment, criteria of Table 138
Method in brief: as §3

Row | Structure (SMILES) | herbicidal effects on Echinochloa crus-galli (L.) P. Beauv. var. crus-galli [1] | herbicidal effects on Abutilon theophrasti medicus [2] | herbicidal effects on Amaranthus viridis L. [3] | Herbicidal effects index, Monochoria vaginalis (Burm. f.) Presl var. plantaginea (Roxb.) Solms-Laub. [4] | Herbicidal effects index, Scirpus juncoides Roxb. var. ohwianus. T. Koyama [5] | Herbicidal effects index, Echinochloa oryzicola Vasing [6] | herbicidal effect (index) on Abutilon theophrasti medicus [7] | herbicidal effect (index) on Amaranthus viridis L. [8]
1 | O=C1CCCC(O)=C1C(=O)c1nc2cccnc2n(-c2ccc(F)cc2)c1=O [IV-8] | 5 | 5 | 5 | 5 | 5 | 5 | 5 | 5
2 | O=C1CCCC(O)=C1C(=O)c1nc2cccnc2n(-c2ccccc2Cl)c1=O [IV-9] | 5 | 5 | 5 | 5 | 5 | 5 | 5 | 5
3 | O=C1CCCC(O)=C1C(=O)c1nc2cccnc2n(-c2cccc(Cl)c2)c1=O [IV-11] | 5 | 5 | 5 | 5 | 5 | 5 | 5 | 5
4 | O=C1CCCC(O)=C1C(=O)c1nc2cccnc2n(-c2ccc(Cl)cc2)c1=O [IV-13] | 5 | 5 | 5 | 5 | 5 | 5 | 5 | 5
5 | O=C1CCCC(O)=C1C(=O)c1nc2cccnc2n(-c2cccc(Br)c2)c1=O [IV-17] | 5 | 5 | 5 | 5 | 5 | 5 | 5 | 5
6 | O=C1CCCC(O)=C1C(=O)c1nc2cccnc2n(-c2ccc(Br)cc2)c1=O [IV-18] | 5 | 5 | 5 | 5 | 5 | 5 | 5 | 5
7 | Cc1ccccc1-n1c(=O)c(C(=O)C2=C(O)CCCC2=O)nc2cccnc21 [IV-19] | 5 | 5 | 5 | 5 | 5 | 5 | 5 | 5
8 | Cc1cccc(-n2c(=O)c(C(=O)C3=C(O)CCCC3=O)nc3cccnc32)c1 [IV-20] | 5 | 5 | 5 | 5 | 5 | 5 | 5 | 5
9 | Cc1ccc(-n2c(=O)c(C(=O)C3=C(O)CCCC3=O)nc3cccnc32)cc1 [IV-21] | 5 | 5 | 5 | 5 | 5 | 5 | 5 | 5
10 | CCc1cccc(-n2c(=O)c(C(=O)C3=C(O)CCCC3=O)nc3cccnc32)c1 [IV-23] | 5 | 4 | 5 | 5 | 5 | 5 | 5 | 5
11 | CCc1ccc(-n2c(=O)c(C(=O)C3=C(O)CCCC3=O)nc3cccnc32)cc1 [IV-24] | 5 | 4 | 5 | 5 | 5 | 5 | 5 | 5
12 | CC(C)c1ccc(-n2c(=O)c(C(=O)C3=C(O)CCCC3=O)nc3cccnc32)cc1 [IV-30] | 5 | 4 | 5 | 5 | 5 | 5 | 4 | 5
13 | O=C1CCCC(O)=C1C(=O)c1nc2cccnc2n(-c2ccc(C3CC3)cc2)c1=O [IV-33] | 5 | 5 | 5 | 5 | 5 | 5 | 5 | 5
14 | O=C1CCCC(O)=C1C(=O)c1nc2cccnc2n(-c2ccccc2C(F)(F)F)c1=O [IV-34] | 5 | 5 | 5 | 5 | 5 | 5 | 5 | 5
15 | O=C1CCCC(O)=C1C(=O)c1nc2cccnc2n(-c2cccc(C(F)(F)F)c2)c1=O [IV-39] | 5 | 5 | 5 | 5 | 5 | 5 | 5 | 5
16 | CC1(C)CCC(=O)C(C(=O)c2nc3cccnc3n(-c3cccc(C(F)(F)F)c3)c2=O)=C1O [IV-40] | 5 | 5 | 5 | 5 | 5 | 5 | 5 | 5
17 | CC1(C)CC(=O)C(C(=O)c2nc3cccnc3n(-c3cccc(C(F)(F)F)c3)c2=O)=C(O)C1 [IV-41] | 5 | 5 | 5 | 5 | 5 | 5 | 5 | 5
18 | O=C1CCCC(O)=C1C(=O)c1nc2cccnc2n(-c2ccc(C(F)(F)F)cc2)c1=O [IV-44] | 5 | 5 | 5 | 5 | 5 | 5 | 5 | 5
